Values quoted from earlier work, collected in patent US12605385B2, “Methotrexate formulation” (Therakind Ltd., priority 2014, dated 2026).
Read-outs that look alike come from different tables or passages of the source.

Assays:
[1] = 50% v/v propylene glycol: water formulation

solubility (in alkaline solution): freely soluble | solubility (in hydrochloric acid): slightly soluble | solubility (in water, alcohol, chloroform and ether): almost insoluble | drug solubility on increasing the vehicle pH to 6.34 [1]: further increased | solubility at pH 5.29 compared with pH 4 [1]: significantly higher
SMILES: CN(Cc1cnc2nc(N)nc(N)c2n1)c1ccc(C(=O)N[C@@H](CCC(=O)O)C(=O)O)cc1 [Methotrexate, 4-amino-N^10-methylpteroylglutamic acid]
